# Assays:
# Type in all cases: cell-based
# [1] = tested on: human tumor H5315 BREAST; assay: Human Tumor Stem Cell Assay, colony growth after one hour exposure; conditions: LO: furandione 0.2 mcg/ml; standard drugs 10% of peak plasma concentration; 1 h
# Description: (§1) The in vitro Human Tumor Stem Cell Assay procedure described as follows has several advantages for testing the effectiveness of chemotherapy drugs such as the 3-(heteroarylalkylene)-2,4(3H,5H)-furandiones. The first advantage is that fresh tumor cells from a variety of tumor types were used rather than a small number of cell lines which have undergone severe selection pressures as they are passed in vitro. The second advantage is that only the anchorage-independent tumor cells will form colonies in soft agar so that any non-malignant cells present in the sample will not form colonies. Perhaps the most important advantage, however, is the emphasis on cells which have the ability to form colonies. These cells, which are generally called stem cells, usually comprise only a small percentage of all tumor cells. They are thought to be the most important cells for growth and distant spread of a tumor. In particular, these cells have the potential to leave the primary tumor and form new tumors at distant sites (called metastases). It is the effectiveness against these very important stem cells that the Human Tumor Stem Cell Assay measures.
# (§2) One of the 3-(heteroarylalkylene)-2,4(3H,5H)-furandione compounds, 3-[(5-methyl-2-thienyl) methylene]-2,4(3H,5H)-furandione was evaluated against a series of 10 human tumors in the in vitro Human Tumor Cell Assay, along with conventional and standard chemotherapy agents.
# (§3) In the procedure, a single cell suspension was prepared from tumors excised from patients during therapeutic or diagnostic surgical procedures. The human tumor cells were exposed to known anticancer drugs or to [(5-methyl-2-thienyl)methylene]-2,4 (3H, 5H)-furandione at a low (0.2 mcg/ml) or a high (1.0 mcg/ml) concentration for one hour. […] The suspension was washed with tissue culture medium to remove the drug.
# (§4) The suspension was then cultured in a double soft agar suspension. Control cells which had been treated identically, except for exposure to the drugs, were also cultured. After one to two weeks, both the tumor cells and the control cells formed colonies in the soft agar which were enumerated under a microscope. The number of colonies grown from the drug-treated cells was compared to the number of colonies grown from the control cells, and the percentage growth after exposure to the drug was calculated.
# (§5) The results are illustrated in Table 1, wherein the various numbers indicate the percentage of growth. For example, a small number like 6 means that the number of colonies is only 6% of the number without addition of the compound. On the other hand, a large number like 120 means that the number of colonies is 20% greater with the compound than without.
# (§6) Of the nine tumors for which the higher concentration (1.0 mcg/ml) of the furandione was used, five gave inhibition of colony growth corresponding to borderline sensitive (30-50% growth) and four gave inhibition corresponding to sensitivity (0-30% growth). Clinical drugs are normally tested at 10% of their peak plasma concentration. For the standard chemotherapy drugs shown in Table 1, the low concentration (LO) corresponds to this 10% level, and the high concentration (HI) is at 50% of the peak plasma concentration. Of the same nine tumors, only two would have been rated as sensitive or borderline sensitive to any of the other clinical drugs tested.
# [2] = tested on: human tumor H5318 OVARY; assay: as above; conditions: HI: furandione 1.0 mcg/ml; standard drugs 50% of peak plasma concentration; 1 h
# Description: as §1, §2, §3, §4, §5, §6
# [3] = tested on: human tumor H5319 BREAST; assay: as above; conditions: 1 h
# Description: as §1, §2, §3, §4, §5, §6
# [4] = tested on: human tumor H5322 STOMACH; assay: as above; conditions: 1 h
# Description: as §1, §2, §3, §4, §5, §6
# [5] = tested on: human tumor H5325 SARCOMA; assay: as above; conditions: 1 h
# Description: as §1, §2, §3, §4, §5, §6
# [6] = tested on: human tumor H5330 THYMUS; assay: as above; conditions: 1 h
# Description: as §1, §2, §3, §4, §5, §6
# [7] = tested on: human tumor H5331 OVARY; assay: as above; conditions: 1 h
# Description: as §1, §2, §3, §4, §5, §6
# [8] = tested on: human tumor H5337 COLON; assay: as above; conditions: 1 h
# Description: as §1, §2, §3, §4, §5, §6
# [9] = tested on: human tumor H5340 **; assay: as above; conditions: 1 h
# Description: as §1, §2, §3, §4, §5, §6
# [10] = tested on: human tumor H5349 BREAST; assay: as above; conditions: 1 h
# Description: as §1, §2, §3, §4, §5, §6
# [11] = tested on: K562 cells (human chronic granulocytic leukemia); assay: K562 human leukemia cell suspension culture, cell concentration; conditions: 1 ug/ml
# Procedure: In this example, 1 mcg/ml of 3[[5-methyl-2-thienyl]methylene]2, 4 (3H, 5H) furandione was compared to 1 mcg/ml of 3[[3-methyl-2-thienyl]methylene]2, 4 (3H, 5H) furandione.
# (§7) A conventionally available cell line (K562) derived from human chronic granulocytic leukemia was employed in an in vitro procedure. The leukemia cell line was cultured in a suspension of RPMI 1640 plus 10% fetal calf serum. All initial cell concentrations for the cultures were 0.65 times 10^5 cells/ml. Four separate suspension cultures were employed with the first suspension culture having no additions. The second suspension culture included 100 microliters of the solvent DMSO per 10 ml of culture (control). The third culture contained 1 ug/ml of 3[[5-methyl-2 thienyl]methylene]-2, 4 (3H, 5H) furandione and the fourth culture contained 1 ug/ml of 3[[3-methyl-2-thienyl]methylene]-2, 4 (3H, 5H) furandione. The cell concentration of each of the four cultures was determined. After three days and again after five days.
# [12] = tested on: KS62 strain stem-cell human leukemia cells; assay: Inhibition of human leukemia cell growth in vitro, as done in Example 3; conditions: Homo sapiens
# Procedure: as §7
# In this example, aliquots of 1.0, 5.0 and 10.0 mcg/ml of each of the family compounds was prepared and assayed against KS62 strain stem-cell human leukemia cells in an in vitro procedure as done in Example 3 above.
# [13] = HI: furandione 1.0 mcg/ml, standard drugs 50% of peak plasma concentration
# [14] = LO: furandione 0.2 mcg/ml, standard drugs 10% of peak plasma concentration
structure (smiles),measurement,setting,value
"Cc1ccc(C=C2C(=O)COC2=O)s1 [Compound 4, 3[(5-methyl-2-thienyl)methylene]2,4(3H,5H)-furandione]",percentage of growth (colonies vs control),[1],62%
same,percentage of growth (colonies vs control),[2],29%
same,percentage of growth (colonies vs control),[3]; [13],6%
same,percentage of growth (colonies vs control),[3]; [14],210%
same,percentage of growth (colonies vs control),[4]; [13],36%
same,percentage of growth (colonies vs control),[4]; [14],68%
same,percentage of growth (colonies vs control),[5]; [13],22%
same,percentage of growth (colonies vs control),[5]; [14],44%
same,percentage of growth (colonies vs control),[6]; [13],38%
same,percentage of growth (colonies vs control),[6]; [14],79%
same,percentage of growth (colonies vs control),[7]; [13],48%
same,percentage of growth (colonies vs control),[7]; [14],64%
same,percentage of growth (colonies vs control),[8]; [13],36%
same,percentage of growth (colonies vs control),[8]; [14],58%
same,percentage of growth (colonies vs control),[9]; [13],50%
same,percentage of growth (colonies vs control),[9]; [14],62%
same,percentage of growth (colonies vs control),[10]; [13],9%
same,percentage of growth (colonies vs control),[10]; [14],82%
same,effect on leukemia culture,[11],very effective against the leukemia culture as demonstrated by the remarkable decrease in cell concentration
same,Cell Conc.,[11]; 3 Days,70000 mL⁻¹
same,Cell Conc.,[11]; 5 Days,50000 mL⁻¹
same,inhibition at 1 µg/mL,[12]; 1.0 mcg/ml,32%
same,inhibition at 5 µg/mL,[12]; 5.0 mcg/ml,97%
same,inhibition at 10 µg/mL,[12]; 10.0 mcg/ml,100%
